# Source: patent publication US4912116A, “Propiophenone derivatives for treatment of pollakiuria (frequency urination)” (Hokuriku Pharmaceutical Co., Ltd., priority 1986, dated 1990)
# Test system: cystometrogram (time to micturition)
# Experiment: Effect on the cystometrogram (pollakiuria model rats induced by hypogastric nerve transection)
# Assay type: in vivo, Male Wister rats
# Details: i.v., mean ± S.E., saline -6.0 ± 31.8
# Description: statistical analysis: Each data of Experiment 1-6 represents the mean±S.E. statistical analysis of the data was performed using student's t-test.
# Male Wister rats weighing 300 g were incised midline of the abdomen, and bilateral hypogastric nerves were transected.
# Two days after hypogastric nerve transection, the rats were anesthetized with urethane (500 mg/kg, i.p.) and alpha-chloralose (50 mg/kg, i.p.) and fixed on their back.
# Then, through a midline incision of the abdomen, the urinary bladder was exposed, provided with a small incision, a polyethylene tube inserted, and ureters were cut.
# Through the polyethylene tube, saline was infused using a continuous infusion pump. On the other hand, the polyethylene tube was connected to a pressure transducer. Intravesical pressure was recorded on a recorder.
# The drug was administrated through a cannula inserted into the left jugular vein at 30 sec before saline infusion.
# Effect of drug was represented as delayed time to micturition.
smiles,measurement,setting,value
CCc1ccc(C(=O)C(C)CN2CCCC2)cc1 (stereo not drawn) [Compound 1],Delayed time of micturition,"1 mg/kg, 5 rats",91.8 ± 47.4 s
same,Delayed time of micturition,"4 mg/kg, 5 rats",179.4 ± 111.0 s
same,Delayed time of micturition,"8 mg/kg, 6 rats, ** P < 0.01 vs control",449.4 ± 65.4 s
